Data: patent publication US20240279562A1, “BIOACTIVE ADDITIVE FOR A FUEL, USES THEREOF, FUEL COMPOSITION, AND METHOD” (TUNAP GMBH & CO. KG, priority 2021, published 2024)

Tests used:
Type in all cases: cell-based
[1] = test system: Hormoconis resinae ATCC 20495; test: Antimicrobial activity according to ASTM E 1259-10, kerosene fungus; details: FIG. 3, additive 1000 ppm, additive composition 2000 ppm or 5000 ppm; for killing of the tested kerosene fungus: MBO 1000 ppm
Description: • “TUNAP active ingredient”: test solution containing 1000 ppm 2-(2-heptadec-8-enyl-2-imidazolin-1-yl)ethanol additive (example according to the disclosure). • “TUNAP Protection System Diesel”: test solutions containing 2000 ppm or 5000 ppm of the additive composition “1903391” described below (corresponding to approx. 1000 ppm or 2500 ppm of the active ingredient 2-(2-heptadec-8-enyl-2-imidazolin-1-yl)ethanol) (examples according to the disclosure). • “Tunap 685 (Protezione Diesel) Biocide with MBO”: test solution containing 1000 ppm of the biocide MBO (3,3-methylenebis (5-methyloxazolidine), (comparative sample). • “BIT”: test solution containing 1000 ppm of the biocide BIT (benzisothiazolinone) (comparative sample). • “blank”: fuel without addition of an additive (comparative sample)
• at least 50% by weight 2-(2-heptadec-8-enyl-2-imidazolin-1-yl)ethanol • 10 to 20% by weight C10-C13 hydrocarbons • 5 to 10% by weight 2,6-di-tert-butyl-4-cresol • 5 to 10% by weight 2-ethylhexanol • 5 to 10% by weight 2-ethylhexyl nitrate • 5 to 10% by weight. of a mixture of bis(2-ethylhexyl)[(4-methyl-1H-1,2,3-benzotriazol-1-yl)methyl]amine, bis(2-ethylhexyl) [(4-methyl-2H-1,2,3-benzotriazol-2-yl)methyl]amine, bis(2-ethylhexyl) [(5-methyl-1H-1,2,3-benzotriazol-1-yl)methyl]amine, bis(2-ethylhexyl) [(5-methyl-2H-1,2,3-benzotriazol-2-yl)methyl]amine, bis(2-ethylhexyl) [(6-methyl-1H-1,2,3-benzotriazol-1-yl)methyl]amine
• Hormoconis resinae ATCC 20495 (“kerosene fungus”) • Pseudomonas aeruginosa DSM 15980 (“bacterium”) • Yarrowia tropicalis ATCC 48138 (“yeast”)
(§1) The antimicrobial activity of the samples against the tested microorganisms was determined according to ASTM E 1259-10.

[2] = test system: Hormoconis resinae ATCC 20495; test: Antimicrobial efficacy according to DIN EN 15457:2014-11, kerosene fungus; details: FIG. 1; test solution 1% by weight additive vs 0.1% by weight MBO or MIT
Description: (§2) • “TUNAP new”: Test solution containing 1% by weight 2-(2-heptadec-8-enyl-2-imidazolin-1-yl)ethanol additive (example according to the disclosure). • “Standard diesel bug biocide with MBO”: test solution containing 0.1% by weight of the biocide MBO (3,3-methylenebis (5-methyloxazolidine)) (comparative sample). • “MIT”: test solution containing 0.1% by weight of the biocide MIT (2-methyl-2H-isothiazol-3-one), (comparative sample). • “Pure fuel”: fuel without the addition of an additive (comparative sample)
(§3) • Hormoconis resinae ATCC 20495 (“kerosene fungus”) • Yarrowia tropicalis ATCC 48138 (“yeast fungus”)
(§4) The antimicrobial efficacy of the samples against the tested microorganisms was determined according to DIN EN 15457:2014-11.

[3] = test system: Yarrowia tropicalis ATCC 48138; test: Antimicrobial efficacy according to DIN EN 15457:2014-11, yeast fungus; details: FIG. 2; test solution 1% by weight additive vs 0.1% by weight MBO or MIT
Description: as §2, §3, §4

[4] = test system: Yarrowia tropicalis ATCC 48138; test: Antimicrobial activity according to ASTM E 1259-10, yeast; details: FIG. 5; additive 1000 ppm, additive composition 2000 ppm or 5000 ppm, BIT 1000 ppm
Description: (§5) • “TUNAP active ingredient”: test solution containing 1000 ppm 2-(2-heptadec-8-enyl-2-imidazolin-1-yl)ethanol additive (example according to the disclosure). • “TUNAP Protection System Diesel”: test solutions containing 2000 ppm or 5000 ppm of the additive composition “1903391” described below (corresponding to approx. 1000 ppm or 2500 ppm of the active ingredient 2-(2-heptadec-8-enyl-2-imidazolin-1-yl)ethanol) (examples according to the disclosure). • “Tunap 685 (Protezione Diesel) Biocide with MBO”: test solution containing 1000 ppm of the biocide MBO (3,3-methylenebis (5-methyloxazolidine), (comparative sample). • “BIT”: test solution containing 1000 ppm of the biocide BIT (benzisothiazolinone) (comparative sample). • “blank”: fuel without addition of an additive (comparative sample) […]
as §1

[5] = test system: Pseudomonas aeruginosa DSM 15980; test: Antimicrobial activity according to ASTM E 1259-10, bacterium; details: FIG. 4; additive composition 2000 ppm or 5000 ppm, MBO 1000 ppm
Description: as §5, §1

| Structure (SMILES) | efficacy against the tested kerosene fungus compared with BIT ([1]; BIT 1000 ppm) | killing of the tested kerosene fungus [1] | efficacy against the tested kerosene fungus compared with MBO and MIT [2] | efficacy against the tested yeast fungus compared with MBO and MIT [3] | efficacy against the tested yeast compared with BIT [4] | killing of the tested bacterium [5] |
| --- | --- | --- | --- | --- | --- | --- |
| CCCCCCCCC=CCCCCCCCC1=NCCN1CCO [additive according to the disclosure, 2-(2-heptadec-8-enyl-2-imidazolin-1-yl)ethanol] | significantly improved efficacy against the tested kerosene fungus than the conventional biocide BIT | almost complete killing | significantly improved efficacy against the tested kerosene fungus than the conventional and also toxic biocides MBO and MIT | at least a similar efficacy against the tested yeast fungus as the conventional but toxic biocides MBO and MIT | significantly improved efficacy against the tested yeast than the conventional biocide BIT | – |
| CC1CN(CN2COC(C)C2)CO1 (stereo not shown) [MBO, 3,3-methylenebis (5-methyloxazolidine), reference compound] | – | almost complete killing | – | – | – | almost complete killing |
